Results reported in US20260007600A1, “NUCLEIC ACID DRUG FOR TREATING HYPERURICEMIA-RELATED DISEASES, PREPARATION METHOD THEREFOR, AND USE THEREOF” (Rigerna Therapeutics (Beijing) Co., Ltd., priority 2022, published 2026).

Columns and labels:
[1] = test system: hyperuricemia mouse model; experiment: Therapeutic effect in hyperuricemia model mice (uric acid inhibitors injected subcutaneously), Example 8; assay type: in vivo, C57BL/6 mice; conditions: mUox@iLAND 200 μL tail vein once; Allopurinol daily in drinking water; vs PBS group; FIG. 15
Description: (§1) Female C57BL/6 mice aged 6 to 8 weeks were purchased from SPF (BEIJING) BIOTECHNOLOGY CO., LTD. The mice were randomly divided into 4 groups and subjected to different treatments, i.e., one group was fed normally, and the other three groups were constructed as models of hyperuricemia. For model mice, uric acid inhibitors were subcutaneously injected on Day −14. On Day 0, blood of all the mice was collected by orbital sampling, and serum was separated to detect uric acid levels. After confirming that the models of mice were successfully modeled, the mice were administrated with drug. The mice that were not subjected to the model construction were raised normally and administrated through tail vein injection with 200 μL of PBS (Control group, G1). The mice were subject to the model construction, and on 14 days after the model construction, the mice were administrated through tail vein injection with 200 μL of PBS (PBS group, G2). […] At different time points after the drug administration, blood of the mice was collected by orbital sampling, and the serum was separated and analyzed for uric acid and other biochemical indices. The changes in weight of the mice were recorded throughout the model construction and drug administration.

[2] = test system: hyperuricemia mouse model; experiment: Therapeutic effect in hyperuricemia model mice (0.15% high-purine feed), Example 9; assay type: in vivo, C57BL/6 mice; conditions: for serum uric acid during treatment: Allopurinol daily in drinking water
Description: as §1, with “For the” for “For”, “the mice” for “uric acid inhibitors”, “fed with 0.15% high-purine feed starting from” for “subcutaneously injected on”, “−14, that is, the hyperuricemia model was constructed by continuous high-purine diet.” for “−14.”, “administration. […] The liver tissue was taken for metabolomics analysis, and the heart, liver, spleen, lung, kidney, and other tissues and organs were fixed and analyzed for pathological changes by H&E staining.” for “administration.”
The same method as step 1 of the present example was used to construct the hyperuricemia mouse model, and the therapeutic effect of the novel lipid nanoparticle Uox1@iLAND in the hyperuricemia mouse model was evaluated. […] At different time points after the drug administration, blood of the mice was collected by orbital sampling, and the serum was separated and the uric acid level was measured.

## Oc1ncnc2[nH]ncc12 [Allopurinol]
[1]
  serum uric acid during treatment: able to maintain a certain level of uric acid
[2]; step 1, Allopurinol daily in drinking water, FIG. 19
  serum uric acid level reached: around 0 μM
[2]; step 1, mUox@iLAND 200 μL tail vein once, FIG. 19
  serum uric acid during treatment: lowered the uric acid level below the normal level
[2]; step 2, Uox1@iLAND 200 μL tail vein once, FIG. 24
  serum uric acid during treatment: lower the uric acid level to a level same as the normal level or a level lower than the normal level
